One data set concerns LNCaP. The data set can be described thus: WST-1 proliferation assay, LNCaP. It is filed as cell-based. As to conditions: Homo sapiens; Prostate LNCaP, 72 h; read-out: Anti-proliferative activity IC50 (μM) ± SD. From the text: (§1) Several cancer cell lines were used: breast cancer cells (MDA-MB-231 (ATTCC® Number HTB-26™), MDA-MB-436 (ATTCC® Number HTB-130™), MDA-MB-438, BT-474 (ATTCC® Number HTB-20™)); cervical cancer cells (HeLa (ATTCC® Number CCL-2™)); colon cancer cells (HCT-116 (ATTCC® Number CCL-247™) and HT-29 (ATTCC® Number HTB-38™)); osteosarcoma cells (U2OS (ATTCC® Number HTB-96™)); pancreas cancer cells (MIA PaCa-2 (ATTCC® Number CRL-1420™) and Panc-10.5 (ATTCC® Number CRL-2547™)); prostate cancer cells (PC-3 (ATTCC® Number CRL-1435™) and LNCaP (ATTCC® Number CRL-1740™)); brain cancer cells (U87 glioblastoma (ATTCC® Number HTB-14™) and SH-SYSY neuroblastoma (ATTCC® Number CRL-2266™)). […]
(§2) After observation of cells under the microscope, old media were removed and the adherent cells washed gently twice with PBS (Phosphate Buffer Saline, —Ca^2+, —Mg^2+, Lonza cat no: 17-512F/12). […] 50 μl of this solution were transferred in 20 μl of isotonic solution and the cells were counted by count cellular (Beckman Coulter). […]
(§3) The cell proliferation WST-1 assay is a colorimetric assay for the quantification of cell proliferation and viability, based on the enzymatic cleavage of the tetrazolium salt WST-1 added to the culture medium, to a water soluble colored formazan dye, detected by absorbance at 450 nm, by mitochondrial succinate-tetrazolium reductase in viable cells. […]

The next data set deals with SH-SY5Y. The data set is described as follows: WST-1 proliferation assay, SH-SY5Y. The conditions noted are these: Homo sapiens; Brain SH-SY5Y, 72 h; read-out: Anti-proliferative activity IC50 (μM) ± SD. Format: cell-based.
Source text: as §1, §2, §3
(In general: Tetrazolium assays rely on reduction of a dye to a coloured formazan, in cell work by metabolically active cells.)

For the next data set, the system named is U2OS. The data set is described as follows: WST-1 proliferation assay, U2OS. As to conditions: Homo sapiens; for IC50: Osteosarcoma U2OS, 72 h, read-out: Anti-proliferative activity IC50 (μM) ± SD; for inhibition at 0.1 µM / inhibition at 0.5 µM / inhibition at 1 µM: U2OS. Format: cell-based. From the text:
(§4) Several cancer cell lines were used: breast cancer cells (MDA-MB-231 (ATTCC® Number HTB-26™), MDA-MB-436 (ATTCC® Number HTB-130™), MDA-MB-438, BT-474 (ATTCC® Number HTB-20™)); cervical cancer cells (HeLa (ATTCC® Number CCL-2™)); colon cancer cells (HCT-116 (ATTCC® Number CCL-247™) and HT-29 (ATTCC® Number HTB-38™)); osteosarcoma cells (U2OS (ATTCC® Number HTB-96™)); pancreas cancer cells (MIA PaCa-2 (ATTCC® Number CRL-1420™) and Panc-10.5 (ATTCC® Number CRL-2547™)); prostate cancer cells (PC-3 (ATTCC® Number CRL-1435™) and LNCaP (ATTCC® Number CRL-1740™)); brain cancer cells (U87 glioblastoma (ATTCC® Number HTB-14™) and SH-SYSY neuroblastoma (ATTCC® Number CRL-2266™)).
(§5) All the cancer cell lines were maintained in cultured in DMEM GlutaMAX™ (GIBCO Invitrogen, France, cat no 31966047) enhanced with 10% foetal bovine serum (GIBCO Invitrogen, France, cat no 10270-106) and 1% penicillin G/streptomycin (GIBCO Invitrogen, France, cat no 15140-122). Only Panc-10.5 cells were cultivated in RPMI 1640 medium (Gibco) supplemented with 2 mM L-glutamine, 1.5 g/L sodium bicarbonate, 4.5 g/L glucose, 10 mM HEPES, 1 mM sodium pyruvate, 10 Units/ml human insulin, […] (SVF): 15% (75 ml in 500 ml of medium).
(§6) Cells were grown as subconfluent monolayer and cultured in 75 cm^2 flasks at 37° C., 5% CO2 in a humidified atmosphere, and medium was changed every two days. Only cells from passages 2-6 were used for the experiments.
(§7) After observation of cells under the microscope, old media were removed and the adherent cells washed gently twice with PBS (Phosphate Buffer Saline, —Ca^2+, —Mg^2+, Lonza cat no: 17-512F/12). All cells were detached with 3 ml of trypsin/EDTA (chelator of calcium and magnesium ions) (Lonza), incubated for 5 min at 37° C., and examined using a microscope to ensure that the cells were detached and floating. Then, 3 ml TNS (Trypsin Neutralizing Solution, Lonza, France, cat no CC-5002) or of culture medium were added to inactivate the trypsin, and the cell suspension was transferred in a falcon and centrifuged for 7 min at 1400 rpm. The supernatant was removed and the cell pellet resuspended in […] of culture medium. 50 μl of this solution were transferred in 20 μl of isotonic solution and the cells were counted by count cellular (Beckman Coulter). At day 0, 200 μl of cellular suspension (3.10^3 cells/well for the HUVEC cells, breast cancer cells (MDA-MB-231 1.10^4 cells/well, MDA-MB-436 1.10^4 cells/well, MDA-MB-438 2.10^4 cells/well, BT-474 2.5.10^4 cells/well); cervical cancer cells (HeLa 5.000 cells/well); colon cancer cells (HCT-116 5.10^3 cells/well, HCT-29 1.1.10^4 cells/well); osteosarcoma cells (U2OS 8.10^3 cells/well); pancreas cancer cells (MIA PaCa-2 5.10^3 cells/well, Panc-10.5 1.5.10^4 cells/well); prostate cancer cells (PC-3 4.10^3 cells/well, LNCaP 2.10^4 cells/well); brain cancer cells (U87 5.10^3 cells/well, SH-SYSY 8.10^4 cells/well)) were then plated on 96 well plates and incubated at 37° C. in a humidified atmosphere of 5% CO2 for 24 h.
(§8) At day 1, the compounds 1 or 2 of the invention were added at increasing concentrations (0.1-10 μM) in the wells and plates were incubated at 37° C. in a humidified atmosphere of 5% CO2 for 72 h.
(§9) The cell proliferation WST-1 assay is a colorimetric assay for the quantification of cell proliferation and viability, based on the enzymatic cleavage of the tetrazolium salt WST-1 added to the culture medium, to a water soluble colored formazan dye, detected by absorbance at 450 nm, by mitochondrial succinate-tetrazolium reductase in viable cells. An augmentation in enzyme activity will then lead to an increase in the amount of formazan dye formed, which directly correlates to the number of metabolically active cells in the culture.
(§10) After an incubation period of 72 h, at day 4, were prepared the 19 ml medium with reagent WST-1 1 ml ([…]). The medium was removed from the 96 microplate and 200 μl of solution WST-1/medium were added for each well. […]

Another data set concerns MDA-MB-438. The data set is described as follows: WST-1 proliferation assay, MDA-MB-438. The conditions noted are these: Homo sapiens; for IC50: Breast MDA-MB-438, 72 h, read-out: Anti-proliferative activity IC50 (μM) ± SD; for inhibition at 0.1 µM: MDA-MB-438, 0.1 μM; for inhibition at 0.5 µM: MDA-MB-438, 0.5 μM; for inhibition at 1 µM: MDA-MB-438, 1 μM. It is filed as cell-based.
Source text: as §4, §5, §6, §7, §8, §9, §10

Another data set concerns KMS-II. The data set can be described thus: WST-1 proliferation assay, KMS-II. The conditions noted are these: Homo sapiens; Myeloma KMS-II; read-out: Anti-proliferative activity IC50 (μM) ± SD. It is filed as cell-based. The procedure:
as §5
Cells were grown as subconfluent monolayer and cultured in 75 cm^2 flasks at 37° C., 5% CO2 in a humidified atmosphere, and medium was changed every two days. […]
as §3
After an incubation period of 72 h, at day 4, were prepared the 19 ml medium with reagent WST-1 1 ml ([…]). […] The cells were incubated at 37° C. in a humidified atmosphere of 5% CO2 for 1 h 30 and the absorbance at 450-655 nm was measured by Microplate Manager 5.2 (Bio-Rad).

The subject of a further data set is cancer cell lines. The data set is described as follows: wst-1 cytotoxic test, all tested cancer cell lines. It is filed as cell-based, Human. As to conditions: breast, colon, pancreas, cervical, prostate or brain cancer or osteosarcoma.
Source text: as §1, §2, §3

As for `Cc1ccc(-c2nc3ccccc3[nH]2)cc1NC(=S)NC(=O)c1ccc2c(c1)OCCO2` [Compound 1, N-[5-(1H-benzimidazol-2-yl)-2-methylphenyl]-N′-(2,3-dihydro-1,4-benzodioxin-6-ylcarbonyl)thiourea], the IC50 (usually the concentration that inhibits the measured activity by half) turned out to be 1.4 ± 0.13 µM in the data set on LNCaP; 0.4 ± 0.03 µM with SH-SY5Y; 2.3 ± 0.04 µM in the data set on U2OS; 1 µM in the data set on MDA-MB-438; 2.3 ± 0.01 µM with KMS-II. Besides, the values for the inhibition at 0.1 µM with U2OS and in the data set with MDA-MB-438 were 15% and 4%, respectively. For the same molecule, the inhibition – broadly, the change of the read-out against control, counted positive when it falls – at 0.5 µM amounted to 29% in the data set with U2OS and 40% in the data set with MDA-MB-438. In addition, the inhibition at 1 µM is 36% in the data set with U2OS and 55% in the data set with MDA-MB-438. Besides, the “cytotoxicity for all the tested cancer cell lines” value with cancer cell lines is given as “cytotoxic for all the tested cancer cell lines”.
Regarding `O=C(NC(=S)Nc1cccc(-c2nc3ccccc3[nH]2)c1)c1ccc2c(c1)OCCO2` [Compound 2, N-[3-(1H-benzimidazol-2-yl)phenyl]-N′-(2,3-dihydro-1,4-benzodioxin-6-ylcarbonyl)thiourea], the IC50 in the data set on LNCaP worked out at 1.3 ± 0.15 µM; in the data set on SH-SY5Y, 0.05 ± 0.04 µM; with U2OS it was 1.8 ± 0.05 µM; in the data set with MDA-MB-438 it was 0.5 ± 0.03 µM; with KMS-II it was 1.8 ± 0.02 µM. For the same molecule, the inhibition at 0.1 µM with U2OS is 31%; in the data set with MDA-MB-438, 34%. In addition, the inhibition at 0.5 µM in the data set with U2OS stood at 41%; in the data set with MDA-MB-438 it was 51%. Further, the inhibition at 1 µM amounted to 44% in the data set on U2OS and 58% in the data set with MDA-MB-438. Further, the “cytotoxicity for all the tested cancer cell lines” value with cancer cell lines is listed as “cytotoxic for all the tested cancer cell lines”.

The record behind these values is patent US20130041005A1, “PHARMACEUTICAL COMPOSITIONS COMPRISING NEUROPILIN INHIBITORS, AND THEIR USE FOR THE PREVENTION AND/OR TREATMENT OF ANGIOGENIC DISORDERS AND CANCERS” (TRAGEX PHARMA, priority 2011, published 2013).
